Measurements published in the NIST ThermoML archive (doi:10.1016/j.tca.2014.07.022).

Legend:
[1] = 100 kPa, Liquid; for viscosity: Concentric cylinders viscometry; for mass density: Vibrating tube method
[2] = xn = mol fraction of the nth substance listed; details: 100 kPa, Liquid; for viscosity: Concentric cylinders viscometry; for mass density: Vibrating tube method

CC(=O)CC(C)C [4-methylpentan-2-one]
[1]
Details	mass density [kg/m3]	viscosity [mPa·s]
293.15 K	800.8	0.588
298.15 K	796.1	0.554
303.15 K	791.6	0.523
308.15 K	786.9	0.493
313.15 K	782.3	0.463
318.15 K	777.6	0.437
323.15 K	773	0.41

CC(=O)CC(C)C [4-methylpentan-2-one] + CCCC(C)O
[2], x1 = 1
Details	mass density [kg/m3]	viscosity [mPa·s]
293.15 K	800.8	0.588
298.15 K	796.1	0.554
303.15 K	791.6	0.523
308.15 K	786.9	0.493
313.15 K	782.3	0.463
318.15 K	777.6	0.437
323.15 K	773	0.41

CCC(C)O (stereo not drawn) [butan-2-ol]
[1]
Details	mass density [kg/m3]	viscosity [mPa·s]
293.15 K	806.7	3.67
298.15 K	802.7	3.04
303.15 K	798.4	2.54
308.15 K	794.1	2.128
313.15 K	789.8	1.805
318.15 K	785.2	1.538
323.15 K	780.6	1.325

CCC(C)O (stereo not drawn) [butan-2-ol] + CC(=O)CC(C)C
[2], x2 = 0
Details	mass density [kg/m3]	viscosity [mPa·s]
293.15 K	806.7	3.67
298.15 K	802.7	3.04
303.15 K	798.4	2.54
308.15 K	794.1	2.128
313.15 K	789.8	1.805
318.15 K	785.2	1.538
323.15 K	780.6	1.325

CCCC(C)O (stereo not drawn) [pentan-2-ol]
[1]
Details	mass density [kg/m3]	viscosity [mPa·s]
293.15 K	809.3	3.974
298.15 K	805.3	3.277
303.15 K	801.2	2.717
308.15 K	797	2.282
313.15 K	792.7	1.931
318.15 K	788.4	1.647
323.15 K	784	1.419

CC(C)O [propan-2-ol]
[1]
Details	mass density [kg/m3]	viscosity [mPa·s]
293.15 K	785.4	2.417
298.15 K	781.1	2.083
303.15 K	776.8	1.8
308.15 K	772.4	1.561
313.15 K	768	1.359
318.15 K	763.4	1.189
323.15 K	758.8	1.047

CC(C)O [propan-2-ol] + CC(=O)CC(C)C
[2], x2 = 0
Details	mass density [kg/m3]	viscosity [mPa·s]
293.15 K	785.4	2.417
298.15 K	781.1	2.083
303.15 K	776.8	1.8
308.15 K	772.4	1.561
313.15 K	768	1.359
318.15 K	763.4	1.189
323.15 K	758.8	1.047
